From ChEMBL document CHEMBL1201862, “PubChem BioAssay data set” (2004)
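A five-concentration, 48-hour dose response in 96-well plates underlies each endpoint, interpolated linearly between surrounding concentrations. Abbreviation: GI50, concentration required for 50% inhibition of growth.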 Calls of active or inactive are those of the source. Rule as the data show it: active = GI50 up to about 1.1 µM and inactive = higher.

Key:
Experiment in all cases: NCI anticancer screen, dose series, 48 h
RPMI-8226 = system: RPMI-8226
786-0 = system: 786-0
ACHN = system: ACHN
OVCAR-5 = system: OVCAR-5
OVCAR-8 = system: OVCAR-8
U-251 = system: U-251
UO-31 = system: UO-31
HOP-62 = system: HOP-62
SK-MEL-28 = system: SK-MEL-28
NCI/ADR-RES = system: NCI/ADR-RES
SK-OV-3 = system: SK-OV-3
HOP-92 = system: HOP-92
HL-60 = system: HL-60
SK-MEL-5 = system: SK-MEL-5
HCT-15 = system: HCT-15
HT-29 = system: HT-29
OVCAR-4 = system: OVCAR-4
MCF7 = system: MCF7
MDA-N = system: MDA-N
NCI-H23 = system: NCI-H23
MOLT-4 = system: MOLT-4
K562 = system: K562
CCRF-CEM = system: CCRF-CEM
T47D = system: T47D
NCI-H460 = system: NCI-H460
M14 = system: M14
Hs-578T = system: Hs-578T
Malme-3M = system: Malme-3M
SF-268 = system: SF-268
RXF 393 = system: RXF 393
KM12 = system: KM12
DU-145 = system: DU-145
A498 = system: A498
EKVX = system: EKVX
TK-10 = system: TK-10
PC-3 = system: PC-3
A549 = system: A549
HCT-116 = system: HCT-116
SW-620 = system: SW-620
SR = system: SR
IGROV-1 = system: IGROV-1
SNB-75 = system: SNB-75
SF-295 = system: SF-295
COLO 205 = system: COLO 205
UACC-257 = system: UACC-257
SNB-19 = system: SNB-19
CAKI-1 = system: CAKI-1
HCC 2998 = system: HCC 2998
NCI-H226 = system: NCI-H226
SN12C = system: SN12C
NCI-H522 = system: NCI-H522
SF-539 = system: SF-539
OVCAR-3 = system: OVCAR-3
SK-MEL-2 = system: SK-MEL-2
MDA-MB-231 = system: MDA-MB-231
UACC-62 = system: UACC-62
LOX IMVI = system: LOX IMVI
MDA-MB-435 = system: MDA-MB-435

SMILES: CCC(=O)C1(c2ccccc2)CCN(C)CC1
- GI50 (RPMI-8226): > 100 µM (inactive)
- GI50 (786-0): > 100 µM (inactive)
- GI50 (ACHN): > 100 µM (inactive)
- GI50 (OVCAR-5): > 100 µM (inactive)
- GI50 (OVCAR-8): > 100 µM (inactive)
- GI50 (U-251): > 100 µM (inactive)
- GI50 (UO-31): > 100 µM (inactive)
- GI50 (HOP-62): > 100 µM (inactive)
- GI50 (SK-MEL-28): > 100 µM (inactive)
- GI50 (NCI/ADR-RES): > 100 µM (inactive)
- GI50 (SK-OV-3): > 100 µM (inactive)
- GI50 (HOP-92): > 100 µM (inactive)
- GI50 (HL-60): > 100 µM (inactive)
- GI50 (SK-MEL-5): > 100 µM (inactive)
- GI50 (HCT-15): > 100 µM
- GI50 (HT-29): > 100 µM (inactive)
- GI50 (OVCAR-4): > 100 µM (inactive)
- GI50 (MCF7): > 100 µM (inactive)
- GI50 (MDA-N): > 100 µM (inactive)
- GI50 (NCI-H23): > 100 µM (inactive)
- GI50 (MOLT-4): > 100 µM (inactive)
- GI50 (K562): > 100 µM (inactive)
- GI50 (CCRF-CEM): > 100 µM (inactive)
- GI50 (T47D): > 100 µM (inactive)
- GI50 (NCI-H460): > 100 µM (inactive)
- GI50 (M14): > 100 µM (inactive)
- GI50 (Hs-578T): > 100 µM (inactive)
- GI50 (Malme-3M): > 100 µM (inactive)
- GI50 (SF-268): > 100 µM (inactive)
- GI50 (RXF 393): > 100 µM (inactive)
- GI50 (KM12): > 100 µM (inactive)
- GI50 (DU-145): > 100 µM (inactive)
- GI50 (A498): > 100 µM (inactive)
- GI50 (EKVX): > 100 µM (inactive)
- GI50 (TK-10): > 100 µM (inactive)
- GI50 (PC-3): > 100 µM (inactive)
- GI50 (A549): > 100 µM (inactive)
- GI50 (HCT-116): > 100 µM (inactive)
- GI50 (SW-620): > 100 µM (inactive)
- GI50 (SR): > 100 µM (inactive)
- GI50 (IGROV-1): > 100 µM (inactive)
- GI50 (SNB-75): > 100 µM (inactive)
- GI50 (SF-295): > 100 µM (inactive)
- GI50 (COLO 205): > 100 µM (inactive)
- GI50 (UACC-257): > 100 µM (inactive)
- GI50 (SNB-19): > 100 µM (inactive)
- GI50 (CAKI-1): > 100 µM (inactive)
- GI50 (HCC 2998): > 100 µM (inactive)

SMILES: O=C(NCCCn1ccnc1[N+](=O)[O-])C(=O)NCCCn1ccnc1[N+](=O)[O-]
- GI50 (RPMI-8226): > 100 µM (inactive)
- GI50 (786-0): > 100 µM (inactive)
- GI50 (ACHN): > 100 µM (inactive)
- GI50 (OVCAR-5): > 100 µM (inactive)
- GI50 (OVCAR-8): 69.2 µM (inactive)
- GI50 (NCI-H226): > 100 µM (inactive)
- GI50 (U-251): > 100 µM (inactive)
- GI50 (HOP-62): > 100 µM (inactive)
- GI50 (SK-MEL-28): > 100 µM (inactive)
- GI50 (HL-60): > 100 µM (inactive)
- GI50 (HCT-15): > 100 µM
- GI50 (SN12C): 90.6 µM (inactive)
- GI50 (HT-29): > 100 µM (inactive)
- GI50 (MCF7): > 100 µM (inactive)
- GI50 (NCI-H23): > 100 µM (inactive)
- GI50 (NCI-H522): > 100 µM (inactive)
- GI50 (MOLT-4): > 100 µM (inactive)
- GI50 (K562): > 100 µM (inactive)
- GI50 (CCRF-CEM): > 100 µM (inactive)
- GI50 (NCI-H460): > 100 µM (inactive)
- GI50 (Hs-578T): > 100 µM (inactive)
- GI50 (Malme-3M): > 100 µM (inactive)
- GI50 (SF-268): > 100 µM (inactive)
- GI50 (SF-539): > 100 µM (inactive)
- GI50 (KM12): > 100 µM (inactive)
- GI50 (EKVX): > 100 µM (inactive)
- GI50 (TK-10): 31.3 µM (inactive)
- GI50 (PC-3): > 100 µM (inactive)
- GI50 (HCT-116): > 100 µM (inactive)
- GI50 (OVCAR-3): > 100 µM (inactive)
- GI50 (SR): > 100 µM (inactive)
- GI50 (SNB-75): > 100 µM (inactive)
- GI50 (SF-295): > 100 µM (inactive)
- GI50 (SK-MEL-2): 45.2 µM (inactive)
- GI50 (UACC-257): > 100 µM (inactive)
- GI50 (HCC 2998): > 100 µM (inactive)

SMILES: CCCCOCn1c(=O)[nH]c(=O)c2cc(Br)ccc21
- GI50 (786-0): 53.3 µM (inactive)
- GI50 (ACHN): 14.3 µM (inactive)
- GI50 (MDA-MB-231): 33.8 µM (inactive)
- GI50 (OVCAR-5): > 100 µM (inactive)
- GI50 (OVCAR-8): 31.1 µM (inactive)
- GI50 (NCI-H226): 12.6 µM (inactive)
- GI50 (U-251): 95.1 µM (inactive)
- GI50 (UO-31): 18.5 µM (inactive)
- GI50 (SK-MEL-28): > 100 µM (inactive)
- GI50 (NCI/ADR-RES): 19.1 µM (inactive)
- GI50 (SK-OV-3): > 100 µM (inactive)
- GI50 (HOP-92): 51.1 µM (inactive)
- GI50 (HL-60): 42.5 µM (inactive)
- GI50 (SK-MEL-5): 33.1 µM (inactive)
- GI50 (HCT-15): 44.2 µM
- GI50 (SN12C): 48.1 µM (inactive)
- GI50 (HT-29): 23.4 µM (inactive)
- GI50 (OVCAR-4): 49.3 µM (inactive)
- GI50 (MCF7): 42.5 µM (inactive)
- GI50 (MDA-N): 55.2 µM (inactive)
- GI50 (UACC-62): 42.5 µM (inactive)
- GI50 (MOLT-4): 44.1 µM (inactive)
- GI50 (K562): 51.8 µM (inactive)
- GI50 (CCRF-CEM): 59.4 µM (inactive)
- GI50 (M14): 87.1 µM (inactive)
- GI50 (LOX IMVI): 58.5 µM (inactive)
- GI50 (RXF 393): 42.3 µM (inactive)
- GI50 (SF-539): > 100 µM (inactive)
- GI50 (KM12): 36.5 µM (inactive)
- GI50 (DU-145): > 100 µM (inactive)
- GI50 (A498): 54.6 µM (inactive)
- GI50 (EKVX): 22.6 µM (inactive)
- GI50 (TK-10): 53.5 µM (inactive)
- GI50 (PC-3): 35.2 µM (inactive)
- GI50 (A549): 48.2 µM (inactive)
- GI50 (HCT-116): 38.5 µM (inactive)
- GI50 (SW-620): > 100 µM (inactive)
- GI50 (OVCAR-3): 45.9 µM (inactive)
- GI50 (SR): 46.2 µM (inactive)
- GI50 (IGROV-1): 40.6 µM (inactive)
- GI50 (SNB-75): 39.7 µM (inactive)
- GI50 (SF-295): 54.6 µM (inactive)
- GI50 (SK-MEL-2): 40.2 µM (inactive)
- GI50 (MDA-MB-435): 68.2 µM (inactive)
- GI50 (COLO 205): 72.1 µM (inactive)
- GI50 (UACC-257): 43.9 µM (inactive)
- GI50 (SNB-19): 33.2 µM (inactive)
- GI50 (CAKI-1): 20.8 µM (inactive)
- GI50 (HCC 2998): > 100 µM (inactive)
